# Measurements taken from patent US12473304B2, “Heterocyclic PAD4 inhibitors” (BRISTOL-MYERS SQUIBB COMPANY, priority 2020, dated 2025).
# Target: human PAD4 (hPAD4) (Homo sapiens (Human), UniProt Q9UM07)
# Experiment: RFMS Human PAD4 Functional Assay 1
# Type: biochemical
# Settings: RFMS assay 1; 5 nM hPAD4, 250 μM BAEE substrate, 50 μM calcium, 37° C.
# Summary of the method: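 Recombinant hPAD4 (5 nM) was preincubated with compound (top 50 μM, 0.5% DMSO) for 30 min at 37 °C, then reacted with 250 μM BAEE for 90 min at 37 °C in pH 7.5 HEPES buffer with 50 μM calcium and 5 μM TPEN. Product was derivatized with phenyl glyoxal and quantified by RapidFire MS.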
# Sequence of human PAD4 (hPAD4) (Q9UM07 whole entry): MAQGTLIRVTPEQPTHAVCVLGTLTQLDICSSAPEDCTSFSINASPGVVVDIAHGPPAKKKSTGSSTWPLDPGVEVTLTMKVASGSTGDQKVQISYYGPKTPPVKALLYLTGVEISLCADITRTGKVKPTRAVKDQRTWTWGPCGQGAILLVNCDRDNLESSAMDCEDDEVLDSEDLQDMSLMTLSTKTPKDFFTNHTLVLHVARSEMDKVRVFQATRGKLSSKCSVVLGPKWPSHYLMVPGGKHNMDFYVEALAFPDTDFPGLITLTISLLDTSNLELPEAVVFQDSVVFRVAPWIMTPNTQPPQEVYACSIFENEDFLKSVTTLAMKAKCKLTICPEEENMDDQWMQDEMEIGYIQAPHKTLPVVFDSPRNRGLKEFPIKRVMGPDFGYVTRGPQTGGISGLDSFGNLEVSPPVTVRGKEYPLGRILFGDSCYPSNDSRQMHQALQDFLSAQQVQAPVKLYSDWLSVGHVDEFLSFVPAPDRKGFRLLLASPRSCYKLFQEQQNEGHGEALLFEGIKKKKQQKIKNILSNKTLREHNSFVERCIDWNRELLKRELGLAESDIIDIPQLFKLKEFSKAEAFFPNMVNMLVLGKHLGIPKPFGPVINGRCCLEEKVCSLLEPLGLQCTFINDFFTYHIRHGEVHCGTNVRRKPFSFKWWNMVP
row,SMILES,IC50
1,"COCC(=O)N1CCC(c2cccc3cc(-c4nn5cc(C(=O)N6CCC[C@@H](N)C6)cc(F)c5c4C)n(CC4CC4)c23)CC1 [Example 429, (R)-1-(4-(2-(6-(3-Aminopiperidine-1-carbonyl)-4-fluoro-3-methylpyrazolo[1,5-a]pyridin-2-yl)-1-(cyclopropylmethyl)-1H-indol-7-yl)piperidin-1-yl)-2-methoxyethan-1-one]",40 nM
2,"Cc1c(-c2cc3cccc(C4CCN(C(=O)CCO)CC4)c3n2CC2CC2)nn2cc(C(=O)N3C[C@H](N)C[C@@H](F)C3)ccc12 [Example 430, 1-(4-(2-(6-((3R,5R)-3-amino-5-fluoropiperidine-1-carbonyl)-3-methylpyrazolo[1,5-a]pyridin-2-yl)-1-(cyclopropylmethyl)-1H-indol-7-yl)piperidin-1-yl)-3-hydroxypropan-1-one]",80 nM
3,"Cc1c(-c2cc3cccc(C4CCN(C(=O)COC(C)C)CC4)c3n2CC2CC2)nn2cc(C(=O)N3C[C@H](N)C[C@@H](F)C3)ccc12 [Example 431, 1-(4-(2-(6-((3R,5R)-3-amino-5-fluoropiperidine-1-carbonyl)-3-methylpyrazolo[1,5-a]pyridin-2-yl)-1-(cyclopropylmethyl)-1H-indol-7-yl)piperidin-1-yl)-2-isopropoxyethan-1-one]",130 nM
4,"Cc1c(-c2cc3cccc(C4CCN(C(=O)COC(C)C)CC4)c3n2CC2CC2)nn2cc(C(=O)N3CCC[C@@H](N)C3)ccc12 [Example 432, (R)-1-(4-(2-(6-(3-aminopiperidine-1-carbonyl)-3-methylpyrazolo[1,5-a]pyridin-2-yl)-1-(cyclopropylmethyl)-1H-indol-7-yl)piperidin-1-yl)-2-isopropoxyethan-1-one]",200 nM
5,"Cc1c(-c2cc3cccc(C4CCN(C(=O)C(C)(C)CO)CC4)c3n2CC2CC2)nn2cc(C(=O)N3C[C@H](N)C[C@@H](F)C3)ccc12 [Example 433, 1-(4-(2-(6-((3R,5R)-3-amino-5-fluoropiperidine-1-carbonyl)-3-methylpyrazolo[1,5-a]pyridin-2-yl)-1-(cyclopropylmethyl)-1H-indol-7-yl)piperidin-1-yl)-3-hydroxy-2,2-dimethylpropan-1-one]",140 nM
6,"Cc1c(-c2cc3cccc(C4CCN(C(=O)C(C)(C)CO)CC4)c3n2CC2CC2)nn2cc(C(=O)N3CCC[C@@H](N)C3)ccc12 [Example 434, (R)-1-(4-(2-(6-(3-aminopiperidine-1-carbonyl)-3-methylpyrazolo[1,5-a]pyridin-2-yl)-1-(cyclopropylmethyl)-1H-indol-7-yl)piperidin-1-yl)-3-hydroxy-2,2-dimethylpropan-1-one]",250 nM
7,"Cc1c(-c2cc3cccc(C4CCN(C(=O)C(C)(C)O)CC4)c3n2CC2CC2)nn2cc(C(=O)N3C[C@H](N)C[C@@H](F)C3)ccc12 [Example 435, 1-(4-(2-(6-((3R,5R)-3-amino-5-fluoropiperidine-1-carbonyl)-3-methylpyrazolo[1,5-a]pyridin-2-yl)-1-(cyclopropylmethyl)-1H-indol-7-yl)piperidin-1-yl)-2-hydroxy-2-methylpropan-1-one]",380 nM
8,"Cc1c(-c2cc3cccc(C4CCN(C(=O)C(C)(C)O)CC4)c3n2CC2CC2)nn2cc(C(=O)N3CCC[C@@H](N)C3)ccc12 [Example 436, (R)-1-(4-(2-(6-(3-aminopiperidine-1-carbonyl)-3-methylpyrazolo[1,5-a]pyridin-2-yl)-1-(cyclopropylmethyl)-1H-indol-7-yl)piperidin-1-yl)-2-hydroxy-2-methylpropan-1-one]",300 nM
9,"Cc1c(-c2cc3cccc(C4CCN(C(=O)CCO)CC4)c3n2CC2CC2)nn2cc(C(=O)N3CCC[C@@H](N)C3)ccc12 [Example 437, (R)-1-(4-(2-(6-(3-aminopiperidine-1-carbonyl)-3-methylpyrazolo[1,5-a]pyridin-2-yl)-1-(cyclopropylmethyl)-1H-indol-7-yl)piperidin-1-yl)-3-hydroxypropan-1-one]",110 nM
10,"Cc1c(-c2cc3cccc(C4CCN(C(=O)CO)CC4)c3n2CC2CC2)nn2cc(C(=O)N3C[C@H](N)C[C@@H](F)C3)ccc12 [Example 438, 1-(4-(2-(6-((3R,5R)-3-amino-5-fluoropiperidine-1-carbonyl)-3-methylpyrazolo[1,5-a]pyridin-2-yl)-1-(cyclopropylmethyl)-1H-indol-7-yl)piperidin-1-yl)-2-hydroxyethan-1-one]",30 nM
11,"Cc1c(-c2cc3cccc(C4CCN(C(=O)CO)CC4)c3n2CC2CC2)nn2cc(C(=O)N3CCC[C@@H](N)C3)ccc12 [Example 439, (R)-1-(4-(2-(6-(3-aminopiperidine-1-carbonyl)-3-methylpyrazolo[1,5-a]pyridin-2-yl)-1-(cyclopropylmethyl)-1H-indol-7-yl)piperidin-1-yl)-2-hydroxyethan-1-one]",30 nM
12,"Cc1c(-c2cc3cccc(C4CCN(C(=O)[C@@H]5CCC[C@H](O)C5)CC4)c3n2CC2CC2)nn2cc(C(=O)N3CCC[C@@H](N)C3)ccc12 [Example 440, ((R)-3-aminopiperidin-1-yl)(2-(1-(cyclopropylmethyl)-7-(1-((1R,3S)-3-hydroxycyclohexane-1-carbonyl)piperidin-4-yl)-1H-indol-2-yl)-3-methylpyrazolo[1,5-a]pyridin-6-yl)methanone]",60 nM
13,"CCOCC(=O)N1CCC(c2cccc3cc(-c4nn5cc(C(=O)N6CCC[C@@H](N)C6)ccc5c4C)n(CC4CC4)c23)CC1 [Example 441, (R)-1-(4-(2-(6-(3-aminopiperidine-1-carbonyl)-3-methylpyrazolo[1,5-a]pyridin-2-yl)-1-(cyclopropylmethyl)-1H-indol-7-yl)piperidin-1-yl)-2-ethoxyethan-1-one]",60 nM
14,"CCOCC(=O)N1CCC(c2cccc3cc(-c4nn5cc(C(=O)N6C[C@H](N)C[C@@H](F)C6)ccc5c4C)n(CC4CC4)c23)CC1 [Example 442, 1-(4-(2-(6-((3R,5R)-3-amino-5-fluoropiperidine-1-carbonyl)-3-methylpyrazolo[1,5-a]pyridin-2-yl)-1-(cyclopropylmethyl)-1H-indol-7-yl)piperidin-1-yl)-2-ethoxyethan-1-one]",30 nM
15,"Cc1c(-c2cc3cccc(C4CCN(C(=O)[C@H]5CC[C@H](O)CC5)CC4)c3n2CC2CC2)nn2cc(C(=O)N3CCC[C@@H](N)C3)ccc12 [Example 443, ((R)-3-aminopiperidin-1-yl)(2-(1-(cyclopropylmethyl)-7-(1-((1r,4r)-4-hydroxycyclohexane-1-carbonyl)piperidin-4-yl)-1H-indol-2-yl)-3-methylpyrazolo[1,5-a]pyridin-6-yl)methanone]",130 nM
16,"Cc1c(-c2cc3cccc(C4CCN(C(=O)[C@H]5CC[C@@H](O)CC5)CC4)c3n2CC2CC2)nn2cc(C(=O)N3C[C@H](N)C[C@@H](F)C3)ccc12 [Example 444, ((3R,5R)-3-amino-5-fluoropiperidin-1-yl)(2-(1-(cyclopropylmethyl)-7-(1-((1s,4s)-4-hydroxycyclohexane-1-carbonyl)piperidin-4-yl)-1H-indol-2-yl)-3-methylpyrazolo[1,5-a]pyridin-6-yl)methanone]",10 nM
17,"Cc1c(-c2cc3cccc(C4CCN(C(=O)CC(C)C)CC4)c3n2CC2CC2)nn2cc(C(=O)N3C[C@H](N)C[C@@H](F)C3)ccc12 [Example 445, 1-(4-(2-(6-((3R,5R)-3-amino-5-fluoropiperidine-1-carbonyl)-3-methylpyrazolo[1,5-a]pyridin-2-yl)-1-(cyclopropylmethyl)-1H-indol-7-yl)piperidin-1-yl)-3-methylbutan-1-one]",160 nM
18,"Cc1c(-c2cc3cccc(C4CCN(C(=O)CC(C)C)CC4)c3n2CC2CC2)nn2cc(C(=O)N3CCC[C@@H](N)C3)ccc12 [Example 446, (R)-1-(4-(2-(6-(3-aminopiperidine-1-carbonyl)-3-methylpyrazolo[1,5-a]pyridin-2-yl)-1-(cyclopropylmethyl)-1H-indol-7-yl)piperidin-1-yl)-3-methylbutan-1-one]",130 nM
19,"Cc1c(-c2cc3cccc(C4CCN(C(=O)[C@H]5CCC[C@@H](O)C5)CC4)c3n2CC2CC2)nn2cc(C(=O)N3CCC[C@@H](N)C3)ccc12 [Example 447, ((R)-3-aminopiperidin-1-yl)(2-(1-(cyclopropylmethyl)-7-(1-((1S,3R)-3-hydroxycyclohexane-1-carbonyl)piperidin-4-yl)-1H-indol-2-yl)-3-methylpyrazolo[1,5-a]pyridin-6-yl)methanone]",170 nM
20,"Cc1c(-c2cc3cccc(C4CCN(C(=O)[C@H]5CCC[C@@H](O)C5)CC4)c3n2CC2CC2)nn2cc(C(=O)N3C[C@H](N)C[C@@H](F)C3)ccc12 [Example 448, ((3R,5R)-3-amino-5-fluoropiperidin-1-yl)(2-(1-(cyclopropylmethyl)-7-(1-((1S,3R)-3-hydroxycyclohexane-1-carbonyl)piperidin-4-yl)-1H-indol-2-yl)-3-methylpyrazolo[1,5-a]pyridin-6-yl)methanone]",70 nM
21,"Cc1c(-c2cc3cccc(C4CCN(C(=O)[C@@H]5CCC[C@H](O)C5)CC4)c3n2CC2CC2)nn2cc(C(=O)N3C[C@H](N)C[C@@H](F)C3)ccc12 [Example 449, ((3R,5R)-3-amino-5-fluoropiperidin-1-yl)(2-(1-(cyclopropylmethyl)-7-(1-((1R,3S)-3-hydroxycyclohexane-1-carbonyl)piperidin-4-yl)-1H-indol-2-yl)-3-methylpyrazolo[1,5-a]pyridin-6-yl)methanone]",50 nM
22,"Cc1c(-c2cc3cccc(C4CCN(C(=O)[C@H]5CC[C@@H](O)CC5)CC4)c3n2CC2CC2)nn2cc(C(=O)N3CCC[C@@H](N)C3)ccc12 [Example 450, ((R)-3-aminopiperidin-1-yl)(2-(1-(cyclopropylmethyl)-7-(1-((2s,4s)-4-hydroxycyclohexane-1-carbonyl)piperidin-4-yl)-1H-indol-2-yl)-3-methylpyrazolo[1,5-a]pyridin-6-yl)methanone]",50 nM
